From paper PMC3090393, “New Noncovalent Inhibitors of Penicillin-Binding Proteins from Penicillin-Resistant Bacteria” (PLoS ONE, 2011)
Values after ≈ are worked out from the molar mass of the structure shown.

Legend:
[1] = tested on: Enterococcus hirae ATCC 8790; assay: In-vitro antibacterial activity (MIC, broth microdilution); type: cell-based; conditions: ATCC8790
Method: (§1) Determination of the antibacterial activities was carried out on microtiter plates, in 200 µL (final volume) of Müeller-Hinton Broth (MHB), following EUCAST (European Committee on Antimicrobial Susceptibility testing)/CLSI (Clinical and Laboratory Standard Institute) recommended procedures, [25]. The compounds were solubilized in MHB, just before use. Inocula were prepared for each strain by resuspending isolated colonies from 18 h cultured plates. Equivalents of 0.5 Mac Farland turbidity standards (approximately 1×10^8 CFU mL^−1) were prepared in saline solution ([…]) and then diluted 200-fold in MBH.

[2] = tested on: Streptococcus pneumoniae D39; assay: as above; type: cell-based
Method: as §1

[3] = tested on: Micrococcus luteus ATCC 9341; assay: as above; type: cell-based; conditions: ATCC9341
Method: as §1

[4] = tested on: Enterococcus faecalis ATCC 7937; assay: as above; type: cell-based; conditions: ATCC7937
Method: as §1

[5] = tested on: Staphylococcus epidermidis ATCC 12228; assay: as above; type: cell-based; conditions: ATCC12228
Method: as §1

[6] = tested on: Pseudomonas aeruginosa ATCC 27853; assay: as above; type: cell-based; conditions: ATCC27853
Method: as §1

[7] = tested on: Listeria innocua ATCC 33090; assay: as above; type: cell-based; conditions: ATCC33090
Method: as §1

[8] = tested on: Escherichia coli ATCC 8739; assay: as above; type: cell-based; conditions: ATCC8739
Method: as §1

[9] = tested on: Proteus mirabilis ATCC 29936; assay: as above; type: cell-based; conditions: ATCC29936
Method: as §1

[10] = tested on: Enterococcus faecalis ATCC 29212; assay: as above; type: cell-based; conditions: ATCC29212
Method: as §1

[11] = tested on: Enterococcus faecium ATCC 19434; assay: as above; type: cell-based; conditions: ATCC19434
Method: as §1

[12] = tested on: Citrobacter freundii ATCC 8090; assay: as above; type: cell-based; conditions: ATCC8090
Method: as §1

[13] = tested on: Staphylococcus aureus ATCC 25923; assay: as above; type: cell-based; conditions: ATCC25923
Method: as §1

[14] = tested on: Streptococcus pneumoniae ATCC 33400; assay: as above; type: cell-based; conditions: ATCC33400
Method: as §1

[15] = tested on: Bacillus subtilis ATCC 6633; assay: as above; type: cell-based; conditions: ATCC6633
Method: as §1

[16] = tested on: Staphylococcus aureus ATCC 43300 (MRSA); assay: as above; type: cell-based
Method: as §1

[17] = tested on: Klebsiella pneumoniae ATCC 13883; assay: as above; type: cell-based; conditions: ATCC13883
Method: as §1

[18] = tested on: Staphylococcus aureus mp 1 (inducible MRSA); assay: as above; type: cell-based
Method: as §1

[19] = tested on: Streptococcus pneumoniae ATCC 49619; assay: as above; type: cell-based; conditions: ATCC49619
Method: as §1

[20] = tested on: Listeria monocytogenes ATCC 14780; assay: as above; type: cell-based; conditions: ATCC14780
Method: as §1

PBP5fm = PBP5fm (Enterococcus faecium, UniProt Q47759); assay: PBP5fm enzymatic inhibition assay (fluorescein-labeled ampicillin, residual penicillin binding activity); type: biochemical, Enterococcus faecium D63r
Method: (§2) PBP2a from Staphylococcus aureus ATCC 43300 and PBP5fm from Enterococcus faecium D63r were overproduced and purified as described previously, [18].
(§3) Each of the purified PBPs (2.5 µM) were first incubated with 1 mM potential inhibitor in 100 mM phosphate buffer, 0.01% Triton X-100[19], pH 7, for 4 h at 30°C. Then, 25 µM fluorescein-labeled ampicillin[20] was added to detect the residual penicillin binding activity (RA). The samples were further incubated for 30 min at 37°C in a total volume of 20 µL. Denaturation buffer was added (0.1 M Tris/HCl, pH 6.8, containing 25% glycerol, 2% SDS, 20% β-mercaptoethanol and 0.02% bromophenol blue) and the samples were heated to 100°C for 1 min. The samples were then loaded onto a 10% SDS-acrilamide gel (10×7 cm) and electrophoresis was performed for 45 min at 180 V (12 mA). Detection and quantification of the RAs were with Molecular Image FX equipment and Quantity One software (BioRad, Hercules, CA, USA). Three independent experiments were carried out for each inhibitor.

[21] = tested on: panel of five Gram-negative and 15 Gram-positive bacterial strains; assay: In-vitro antibacterial activity (MIC), whole panel; type: cell-based; conditions: summary over the whole panel; read-out: MICs for all of the bacterial strains under investigation
Method: as §1

PBP2a = target: T1, PBP2a (Staphylococcus aureus, UniProt P07944); assay: PBP2a enzymatic inhibition assay (fluorescein-labeled ampicillin, residual penicillin binding activity); type: biochemical, Staphylococcus aureus ATCC 43300
T1 construct: made in house
Method: as §2, §3

PBP2x 5204 = PBP2x 5204 (Streptococcus pneumoniae, UniProt P59676); assay: PBP2x 5204 enzymatic inhibition assay (S2d hydrolysis, DTNB); type: biochemical, Streptococcus pneumoniae strain 5204; conditions: residual activity of the enzyme at 1 mM inhibitor; 240 min
Method: PBP2x-5204 from Streptococcus pneumonia and N-benzoyl-D-alanyl-thioglycolate S2d[21], [22] were prepared as previously described. All assays with PBP2x 5204 were carried out in 96-well microtiter plates (Brand, Wertheim, Germany). PBP2x 5204 (0.6 µM) was incubated in the presence of the potential inhibitors in 10 mM sodium phosphate buffer (pH 7.0) containing 70 mM D-alanine and 0.01 mg/mL BSA, for 4 h at 25°C. This preincubation was used to also detect slow binding inhibitors. After the preincubation, the RA of PBP2x 5204 was determined. The initial rate of hydrolysis of 1 mM S2d in the presence of 1 mM DTNB was determined by monitoring the increase in absorbance at 412 nm (DTNB: ε[Δ ε] = […]) using a microplate absorbance reader (Power Wave X, Biotek Instruments, Winooski, U.S.A.). The rate of spontaneous hydrolysis of S2d in the presence of the potential inhibitors was also determined in the absence of PBP2x 5204. All of the assays were carried out in triplicate. The determination of the RA of PBP2x 5204 in the absence of inhibitors was carried out six times on each plate. A test compound was considered as an inhibitor if the RA was <80%. In this case, to reveal false positives, the assays were also carried out under the same conditions in the presence of 0.01% Triton X-100. As described in the literature, promiscuous inhibitors (false positives) are slow binding, noncompetitive inhibitors. To avoid detailed kinetic investigations, it is possible to identify such compounds by carrying out the assays in the presence of Triton X-100[14], [19]. Promiscuous inhibitors show no inhibition in the presence of Triton X-100. The IC50 values in the presence of Triton X-100 were determined if the RAs were <50%. (RA: ∼50%, IC50∼c, c: concentration of compound in the assay; RA >50%, IC50 > c). The RA was measured over a range of concentrations, from which the IC50 values were determined by non-linear regression analysis, using Sigma Plot (Systat software) and fitting the data to the equation y = y0+(a×b)/(b+x)[23].

[22] = in the presence of 0.01% Triton X-100

T1 sequence (P07944 whole entry): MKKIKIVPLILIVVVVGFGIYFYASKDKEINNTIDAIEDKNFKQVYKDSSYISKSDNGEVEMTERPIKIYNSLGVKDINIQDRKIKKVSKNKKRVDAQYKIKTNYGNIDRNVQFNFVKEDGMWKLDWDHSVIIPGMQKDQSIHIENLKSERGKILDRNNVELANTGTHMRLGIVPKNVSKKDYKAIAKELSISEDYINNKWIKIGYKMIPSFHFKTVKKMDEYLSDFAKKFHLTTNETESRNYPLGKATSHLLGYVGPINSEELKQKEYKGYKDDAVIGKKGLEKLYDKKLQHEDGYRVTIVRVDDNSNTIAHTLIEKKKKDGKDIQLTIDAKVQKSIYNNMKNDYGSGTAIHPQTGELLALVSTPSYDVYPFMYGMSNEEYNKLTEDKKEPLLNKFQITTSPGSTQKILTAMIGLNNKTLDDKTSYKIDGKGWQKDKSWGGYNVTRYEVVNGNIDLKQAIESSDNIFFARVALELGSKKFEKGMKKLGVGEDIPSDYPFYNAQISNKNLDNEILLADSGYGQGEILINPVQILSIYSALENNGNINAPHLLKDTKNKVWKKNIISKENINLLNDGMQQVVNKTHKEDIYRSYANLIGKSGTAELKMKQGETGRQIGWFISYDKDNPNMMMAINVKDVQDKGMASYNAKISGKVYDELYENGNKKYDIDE
PBP5fm, sequence (Q47759 entry or part of it): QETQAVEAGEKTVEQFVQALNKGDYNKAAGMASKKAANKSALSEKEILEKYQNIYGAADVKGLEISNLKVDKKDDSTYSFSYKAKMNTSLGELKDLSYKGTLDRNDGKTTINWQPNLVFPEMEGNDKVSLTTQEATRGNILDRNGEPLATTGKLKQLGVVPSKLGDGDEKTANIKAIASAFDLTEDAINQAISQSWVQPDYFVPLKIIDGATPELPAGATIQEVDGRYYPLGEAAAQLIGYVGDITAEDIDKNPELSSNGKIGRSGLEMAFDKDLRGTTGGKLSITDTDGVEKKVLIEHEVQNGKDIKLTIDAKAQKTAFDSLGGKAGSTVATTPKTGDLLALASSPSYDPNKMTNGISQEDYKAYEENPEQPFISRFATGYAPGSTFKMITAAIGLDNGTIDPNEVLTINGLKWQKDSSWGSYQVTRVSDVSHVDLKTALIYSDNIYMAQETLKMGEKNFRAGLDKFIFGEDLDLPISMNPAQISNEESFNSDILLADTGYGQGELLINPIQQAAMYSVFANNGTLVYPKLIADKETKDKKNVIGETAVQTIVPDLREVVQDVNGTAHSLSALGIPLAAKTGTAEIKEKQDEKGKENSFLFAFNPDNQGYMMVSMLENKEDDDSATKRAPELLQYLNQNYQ
PBP2x 5204, sequence (P59676 49-750): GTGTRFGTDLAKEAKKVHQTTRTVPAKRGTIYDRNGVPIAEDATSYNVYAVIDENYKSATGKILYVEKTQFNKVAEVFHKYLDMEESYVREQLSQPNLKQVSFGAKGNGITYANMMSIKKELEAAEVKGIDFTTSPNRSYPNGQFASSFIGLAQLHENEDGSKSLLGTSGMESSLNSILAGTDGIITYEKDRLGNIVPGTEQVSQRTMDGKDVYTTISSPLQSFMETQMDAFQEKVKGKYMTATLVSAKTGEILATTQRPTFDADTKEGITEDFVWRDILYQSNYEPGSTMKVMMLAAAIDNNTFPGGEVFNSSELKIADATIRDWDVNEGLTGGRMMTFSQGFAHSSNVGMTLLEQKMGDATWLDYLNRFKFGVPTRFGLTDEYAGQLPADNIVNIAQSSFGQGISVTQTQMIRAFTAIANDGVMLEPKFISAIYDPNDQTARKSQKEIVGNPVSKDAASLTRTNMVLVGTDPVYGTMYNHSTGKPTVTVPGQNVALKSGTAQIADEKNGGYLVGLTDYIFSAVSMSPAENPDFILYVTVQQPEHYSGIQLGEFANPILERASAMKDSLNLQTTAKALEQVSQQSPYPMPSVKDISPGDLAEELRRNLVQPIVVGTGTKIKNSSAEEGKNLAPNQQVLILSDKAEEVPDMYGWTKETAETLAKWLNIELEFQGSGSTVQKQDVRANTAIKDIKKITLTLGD

CCCOc1cccc(C(=O)Nc2ccccc2C(=O)O)c1 [compound 12, 2-(3-Propoxybenzamido)benzoic acid]
MIC [1]: 256 µg/mL (≈ 855 µM) | MIC [2]: 256 µg/mL (≈ 855 µM) | MIC [3]: 256 µg/mL (≈ 855 µM) | MIC [4]: > 512 µg/mL | MIC [5]: 256 µg/mL (≈ 855 µM) | MIC [6]: > 512 µg/mL | MIC [7]: > 512 µg/mL | MIC [8]: > 512 µg/mL | MIC [9]: > 512 µg/mL | MIC [10]: 256 µg/mL (≈ 855 µM) | MIC [11]: > 512 µg/mL | MIC [12]: > 512 µg/mL | MIC [13]: 512 µg/mL (≈ 1710 µM) | MIC [14]: 256 µg/mL (≈ 855 µM) | MIC [15]: > 512 µg/mL | MIC [16]: 512 µg/mL (≈ 1710 µM) | MIC [17]: > 512 µg/mL | MIC [18]: 512 µg/mL (≈ 1710 µM) | MIC [19]: 256 µg/mL (≈ 855 µM) | MIC [20]: > 512 µg/mL | activity at 1000 µM (PBP5fm; 4 h, residual activity of the enzyme at 1 mM inhibitor, 0.01% Triton X-100, read-out: PBP5fm RA [%]): 34% | IC50 (PBP5fm; [22]): > 1000 µM | MIC [21]: ≥ 256 µg/mL | remaining activity at 1000 µM (PBP2a; 4 h, residual activity of the enzyme at 1 mM inhibitor, 0.01% Triton X-100, mean of three experiments, read-out: PBP2a RA [%]): 47% | IC50 (PBP2a; [22]): 910 µM | PBP2x5204 RA [%] (PBP2x 5204): 97%
